{"source": "patent US20230274799A1", "about": "“SYSTEMS AND METHODS FOR PATIENT STRATIFICATION AND IDENTIFICATION OF POTENTIAL BIOMARKERS” (Berg LLC, priority 2016, published 2023)", "experiment": "Phase I dose-escalation trial, dose limiting toxicities of Coenzyme Q10 monotherapy (Arm 1)", "format": "in vivo, human", "description": "The clinical trial is a multicenter, open-label, non-randomized, dose-escalation study to examine the dose limiting toxicities (DLT) of Coenzyme Q10 administered as a 144-hour continuous intravenous (IV) infusion as monotherapy (treatment Arm 1) and in combination with chemotherapy (treatment Arm 2) in patients with solid tumors. A broad range of solid tumors has been evaluated, including prostate, colon, breast, lung and pancreatic tumors, as shown in Tables 1 and 2 below. Coenzyme Q10 was administered in three consecutive 48 hour doses or two consecutive 72 hour doses, depending on the dose level. Three standard weekly chemotherapy regimens of gemcitabine, 5-fluorouracil, or docetaxel were evaluated in combination with Coenzyme Q10. Eligible patients are 18 years of age or older, afflicted with solid tumors, and relapsed/refractory to standard therapy. 85 patients have been enrolled in the trial. The monotherapy arm received Coenzyme Q10 for 6 days in continuous infusion in 28 day cycles, and the combination arms (gemcitabine, 5-fluorouracil, or docetaxel) were primed for 3 weeks with Coenzyme Q10 before initiation of standard chemotherapy, followed by weekly dosing in a 6 week cycle.\nThe study is a standard 3+3 dose escalation design with the dose escalated in successive cohorts of 3 to 6 patients each. Toxicity at each dose level is graded according to National Cancer Institute Common Terminology Criteria for Adverse Events (CTCAE v4.02). Safety oversight is provided by the Cohort Review Committee (CRC). If none of the 3 patients in a cohort experiences a DLT during Cycle 1, then 3 new patients may be entered at the next higher dose level following CRC review of safety and PK data from lower cohorts. The clinical trial is described in greater detail in WO2015/035094, which is incorporated by reference herein in its entirety.\nDLTs were reported at 171 mg/kg in the Coenzyme Q10 monotherapy arm and at 137 mg/kg in the gemcitabine arm (maximum administered dose) and were coagulopathy-related. 3 DLTs were reported during the time period covered by Example 1. […] The event resolved in 2 days after administration of Vitamin K and fresh frozen plasma (FFP). Three additional patients were enrolled at this dose level with no additional DLTs reported. […] According to trial design, patients were being enrolled into the next lowest dose level (110 mg/kg).\nTable 4. Dose limiting toxicities for Coenzyme Q10 monotherapy. The number of patients enrolled at each dose level (DL) is shown in parentheses. DL4 and DL5 were administered in two consecutive 72 hour IV infusions. All other dose levels were administered by three consecutive 48 hour IV infusions.", "note": "Several values for one entry are separate records, joined by “and”; a condition that tells them apart may be missing. Equal values may be shown once.", "data": [{"smiles": "COC1=C(OC)C(=O)C(C/C=C(\\C)CC/C=C(\\C)CC/C=C(\\C)CC/C=C(\\C)CC/C=C(\\C)CC/C=C(\\C)CC/C=C(\\C)CC/C=C(\\C)CC/C=C(\\C)CCC=C(C)C)=C(C)C1=O", "note": "[Coenzyme Q10]", "values": [{"measurement": "Time to resolution of DLT event (grade 3 PTT abnormality)", "setting": "Mono Dose Level 5 (171 mg/kg), after administration of Vitamin K and fresh frozen plasma", "result": 2, "unit": "days"}, {"measurement": "Dose Limiting Toxicity", "setting": "monotherapy DL1 - 66 mg/kg (9 enrolled), three consecutive 48 hour IV infusions, cell wraps r7-r9: Grade 3 Elevated Liver Function Test*, *readjudicated to unlikely related to protocol therapy", "result": "Grade 3 Elevated"}, {"measurement": "Dose Limiting Toxicity", "setting": "monotherapy DL2 - 88 mg/kg (4 enrolled), three consecutive 48 hour IV infusions", "result": "None"}, {"measurement": "Dose Limiting Toxicity", "setting": "monotherapy DL3 - 110 mg/kg (5 enrolled), three consecutive 48 hour IV infusions", "result": "None"}, {"measurement": "Dose Limiting Toxicity", "setting": "monotherapy DL4 - 137 mg/kg (4 enrolled), two consecutive 72 hour IV infusions", "result": "None"}, {"measurement": "Dose Limiting Toxicity", "setting": "monotherapy DL5 - 171 mg/kg (8 enrolled), two consecutive 72 hour IV infusions, cell wraps r20-r21: 1 DLT: Grade 3 PTT elevation", "result": "grade 3 partial thromboplastin time (PTT) abnormality and 1 DLT: Grade 3"}, {"measurement": "Number of DLTs reported", "setting": "whole trial (mono and combination arms), time period covered by Example 1", "result": 3}]}]}
